Results: paper PMC10818824, “In Vitro and In Silico Analysis of the Bindings between Legacy and Novel Per- and Polyfluoroalkyl Substances and Human Serum Albumin” (Toxics, 2024)

target: T1, HSA (human serum albumin) (Homo sapiens, UniProt P02768); assay: intrinsic fluorescence quenching, double-log fit; format: binding; design: unit not given here; conditions: Tris-HCl pH 7.4, room temperature, 30 min, ex 275 nm; ethanol stocks; KA unit not given
T1 construct: gene ALB; mature single chain of 585 residues, N-terminal Asp, C-terminal Leu; untagged; monomer
Excerpt: intrinsic fluorescence quenching, double-log fit on HSA (human serum albumin)

T1 sequence (P02768 25-609): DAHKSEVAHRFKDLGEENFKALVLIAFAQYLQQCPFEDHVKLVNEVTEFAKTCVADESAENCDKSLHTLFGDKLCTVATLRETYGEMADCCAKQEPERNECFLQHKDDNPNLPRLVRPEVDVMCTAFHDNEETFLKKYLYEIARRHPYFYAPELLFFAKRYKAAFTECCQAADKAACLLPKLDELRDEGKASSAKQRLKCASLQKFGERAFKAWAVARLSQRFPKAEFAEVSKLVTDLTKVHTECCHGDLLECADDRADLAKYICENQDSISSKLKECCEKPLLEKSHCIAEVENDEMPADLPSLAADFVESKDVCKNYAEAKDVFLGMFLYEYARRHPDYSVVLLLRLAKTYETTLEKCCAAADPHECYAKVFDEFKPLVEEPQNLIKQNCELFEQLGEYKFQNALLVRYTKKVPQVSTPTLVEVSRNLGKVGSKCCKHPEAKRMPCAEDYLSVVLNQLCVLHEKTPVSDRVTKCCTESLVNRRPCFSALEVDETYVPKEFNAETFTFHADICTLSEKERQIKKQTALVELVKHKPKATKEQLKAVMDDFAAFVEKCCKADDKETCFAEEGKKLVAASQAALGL

Row | Compound | Binding Constant KA
1 | O=C(O)C(F)(F)C(F)OC(F)(F)C(F)(F)C(F)(F)OC(F)(F)F (centres unmarked) [NaDONA, sodium dodecafluoro-3H–4,8–dioxanonanoate] | 93.0894
2 | O=S(=O)(O)C(F)(F)C(F)(F)C(F)(F)C(F)(F)F [PFBS] | 116.4930
3 | O=S(=O)(O)C(F)(F)C(F)(F)OC(F)(F)C(F)(F)C(F)(F)C(F)(F)C(F)(F)C(F)(F)Cl [9Cl-PF3ONS, 9–chlorohexadecafluoro–3–oxanone–1–sulfonic acid] | 117.112
4 | O=S(=O)(O)C(F)(F)C(F)(F)C(F)(F)C(F)(F)C(F)(F)C(F)(F)C(F)(F)C(F)(F)F [PFOS] | 394.639
5 | O=C(O)C(F)(F)C(F)(F)C(F)(F)F [PFBA] | 20.3657
6 | O=S(=O)(O)C(F)(F)C(F)(F)C(F)(F)C(F)(F)C(F)(F)C(F)(F)F [PFHxS] | 157.9429
7 | O=S(=O)(O)C(F)(F)C(F)(F)OC(F)(F)C(F)(F)C(F)(F)C(F)(F)C(F)(F)C(F)(F)C(F)(F)C(F)(F)Cl [11Cl-PF3OUdS, 11–chloroeicosafluoro–3–oxaundecane–1–sulfonic acid] | 127.6145
8 | O=S(=O)(O)C(F)(F)C(F)(F)C(F)(F)F [PFPrS] | 79.4511
